Experimental data published in the supplement of paper PMC10733146.

Columns and labels:
Test in all cases: viability relative to DMSO control (fraction); higher = less drug effect (more viable cells)
Details in all cases: 48 h
[1] = compound: CC(C)(C)c1cc(NC(=O)Nc2ccc(-c3cn4c(n3)sc3cc(OCCN5CCOCC5)ccc34)cc2)no1 [Quizartinib]
Method in brief: (§1)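 Viability was quantified by CellTiter-Glo luminescence and related to the median of 16 inner DMSO wells. Before that, primary mononuclear tumour cells, fresh or cryopreserved and Ficoll-isolated from blood or bone marrow or prepared from processed lymph node, were plated at 4 × 10^4 cells per well in 384-well plates containing pre-plated compounds at five concentrations, one well each. Plates were incubated in RPMI-1640 with penicillin/streptomycin, L-glutamine and human serum at 37 °C and 5% CO2 for 48 h.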

[2] = compound: NC(=O)Nc1cc(-c2cccc(F)c2)sc1C(=O)N[C@H]1CCCNC1 [AZD7762]
Method in brief: as §1

[3] = compound: COc1c(Cl)cc2c([nH]c3cnccc32)c1NC(=O)c1cccnc1C [MLN-120B]
Method in brief: as §1

[4] = compound: Cc1cc(Nc2cc(N3CCN(C)CC3)nc(Sc3ccc(NC(=O)C4CC4)cc3)n2)n[nH]1 [Tozasertib]
Method in brief: as §1

[5] = compound: CC(=O)[C@]1(O)Cc2c(O)c3c(c(O)c2[C@@H](O[C@H]2C[C@H](N)[C@H](O)[C@H](C)O2)C1)C(=O)c1ccccc1C3=O [Idarubicin]
Method in brief: as §1

[6] = compound: CC#CC(=O)N1CC[C@@H](n2c(=O)n(-c3ccc(Oc4ccccc4)cc3)c3c(N)ncnc32)C1 [ONO-4059]
Method in brief: as §1

[7] = compound: CC[C@@H]1C(=O)N(C)c2cnc(Nc3ccc(C(=O)N[C@H]4CC[C@H](N5CCN(CC6CC6)CC5)CC4)cc3OC)nc2N1C(C)C [BI6727]
Method in brief: as §1

[8] = compound: CCCS(=O)(=O)Nc1ccc(F)c(C(=O)c2c[nH]c3ncc(-c4ccc(Cl)cc4)cc23)c1F [Vemurafenib]
Method in brief: as §1

[9] = compound: CC(C)N(C[C@H]1O[C@@H](n2cnc3c(N)ncnc32)[C@H](O)[C@@H]1O)[C@H]1C[C@@H](CCc2nc3cc(C(C)(C)C)ccc3[nH]2)C1 [EPZ-5676]
Method in brief: as §1

[10] = compound: OCc1ccc(-c2ccc(-c3ccc(CO)s3)o2)s1
Method in brief: as §1

[11] = compound: Nc1nc(Cl)nc2c1ncn2[C@H]1C[C@H](O)[C@@H](CO)O1 [Cladribine]
Method in brief: as §1

[12] = compound: CC(C)C[C@H](NC(=O)[C@H](CCc1ccccc1)NC(=O)CN1CCOCC1)C(=O)N[C@@H](Cc1ccccc1)C(=O)N[C@@H](CC(C)C)C(=O)[C@@]1(C)CO1 [Carfilzomib]
Method in brief: as §1

[13] = compound: CC(C)(C)OC(=O)Nc1ccc(-c2cc(C(=O)NCCCCCCC(=O)NO)no2)cc1
Method in brief: as §1

[14] = compound: Cc1[nH]c2ccccc2c1CCNCc1ccc(/C=C/C(=O)NO)cc1 [Panobinostat]
Method in brief: as §1

[15] = compound: CCOc1cc(C(=O)N2CCC(N3CCN(C)CC3)CC2)ccc1Nc1ncc2c(n1)N(C1CCCC1)c1ccccc1C(=O)N2C [ERK5-IN-1]
Method in brief: as §1

Test System: primary B-PLL patient cells (S016)
- viability ([1]; 0.016 µM): 1.03
- viability ([1]; 0.08 µM): 1.25
- viability ([1]; 0.4 µM): 1.04
- viability ([1]; 2 µM): 1.15
- viability ([1]; 10 µM): 1
- viability ([2]; 0.024 µM): 0.508
- viability ([2]; 0.12 µM): 0.619
- viability ([2]; 0.6 µM): 0.702
- viability ([2]; 3 µM): 0.758
- viability ([2]; 15 µM): 0.358
- viability ([3]; 0.024 µM): 0.915
- viability ([3]; 0.12 µM): 0.98
- viability ([3]; 0.6 µM): 0.926
- viability ([3]; 3 µM): 0.887
- viability ([3]; 15 µM): 0.716
- viability ([4]; 0.024 µM): 0.856
- viability ([4]; 0.12 µM): 0.74
- viability ([4]; 0.6 µM): 0.688
- viability ([4]; 3 µM): 0.619
- viability ([4]; 15 µM): 0.737
- viability ([5]; 0.024 µM): 0.188
- viability ([5]; 0.12 µM): 0.0649
- viability ([5]; 0.6 µM): 0.0214
- viability ([5]; 3 µM): 0.0129
- viability ([5]; 15 µM): 0.00911
- viability ([6]; 0.0016 µM): 0.701
- viability ([6]; 0.008 µM): 0.554
- viability ([6]; 0.04 µM): 0.553
- viability ([6]; 0.2 µM): 0.491
- viability ([6]; 1 µM): 0.577
- viability ([7]; 0.024 µM): 0.953
- viability ([7]; 0.12 µM): 0.973
- viability ([7]; 0.6 µM): 0.935
- viability ([7]; 3 µM): 0.8
- viability ([7]; 15 µM): 0.364
- viability ([8]; 0.024 µM): 0.934
- viability ([8]; 0.12 µM): 0.948
- viability ([8]; 0.6 µM): 1.02
- viability ([8]; 3 µM): 1.01
- viability ([8]; 15 µM): 0.981
- viability ([9]; 0.0032 µM): 0.991
- viability ([9]; 0.016 µM): 1.09
- viability ([9]; 0.08 µM): 0.93
- viability ([9]; 0.4 µM): 0.971
- viability ([9]; 2 µM): 1.05
- viability ([10]; 0.024 µM): 0.989
- viability ([10]; 0.12 µM): 1.07
- viability ([10]; 0.6 µM): 0.892
- viability ([10]; 3 µM): 0.928
- viability ([10]; 15 µM): 0.402
- viability ([11]; 0.024 µM): 0.855
- viability ([11]; 0.12 µM): 0.645
- viability ([11]; 0.6 µM): 0.252
- viability ([11]; 3 µM): 0.105
- viability ([11]; 15 µM): 0.0548
- viability ([12]; 0.00016 µM): 0.933
- viability ([12]; 0.0008 µM): 0.381
- viability ([12]; 0.004 µM): 0.0322
- viability ([12]; 0.02 µM): 0.0189
- viability ([12]; 0.1 µM): 0.0238
- viability ([13]; 0.024 µM): 1.07
- viability ([13]; 0.12 µM): 0.793
- viability ([13]; 0.6 µM): 0.4
- viability ([13]; 3 µM): 0.177
- viability ([13]; 15 µM): 0.0354
- viability ([14]; 0.00064 µM): 0.824
- viability ([14]; 0.0032 µM): 0.424
- viability ([14]; 0.016 µM): 0.0534
- viability ([14]; 0.08 µM): 0.0414
- viability ([14]; 0.4 µM): 0.0709
- viability ([15]; 0.024 µM): 1.03
- viability ([15]; 0.12 µM): 0.97
- viability ([15]; 0.6 µM): 1.02
- viability ([15]; 3 µM): 0.853
- viability ([15]; 15 µM): 0.548

Test System: primary AML patient cells (S037)
- viability ([1]; 0.016 µM): 1.07
- viability ([1]; 0.08 µM): 1.07
- viability ([1]; 0.4 µM): 1.06
- viability ([1]; 2 µM): 1.1
- viability ([1]; 10 µM): 1.02
- viability ([2]; 0.024 µM): 0.885
- viability ([2]; 0.12 µM): 1.12
- viability ([2]; 0.6 µM): 0.857
- viability ([2]; 3 µM): 1.17
- viability ([2]; 15 µM): 0.911
- viability ([3]; 0.024 µM): 0.965
- viability ([3]; 0.12 µM): 1.24
- viability ([3]; 0.6 µM): 0.95
- viability ([3]; 3 µM): 1.13
- viability ([3]; 15 µM): 0.812
- viability ([4]; 0.024 µM): 0.984
- viability ([4]; 0.12 µM): 0.901
- viability ([4]; 0.6 µM): 0.953
- viability ([4]; 3 µM): 0.912
- viability ([4]; 15 µM): 0.99
- viability ([5]; 0.024 µM): 0.593
- viability ([5]; 0.12 µM): 0.389
- viability ([5]; 0.6 µM): 0.337
- viability ([5]; 3 µM): 0.337
- viability ([5]; 15 µM): 0.242
- viability ([6]; 0.0016 µM): 1.02
- viability ([6]; 0.008 µM): 1.58
- viability ([6]; 0.04 µM): 1.01
- viability ([6]; 0.2 µM): 1.21
- viability ([6]; 1 µM): 1.05
- viability ([7]; 0.024 µM): 0.929
- viability ([7]; 0.12 µM): 0.909
- viability ([7]; 0.6 µM): 0.77
- viability ([7]; 3 µM): 0.673
- viability ([7]; 15 µM): 0.535
- viability ([8]; 0.024 µM): 0.931
- viability ([8]; 0.12 µM): 1.03
- viability ([8]; 0.6 µM): 0.892
- viability ([8]; 3 µM): 1.12
- viability ([8]; 15 µM): 1.06
- viability ([9]; 0.0032 µM): 0.876
- viability ([9]; 0.016 µM): 1.06
- viability ([9]; 0.08 µM): 0.888
- viability ([9]; 0.4 µM): 0.938
- viability ([9]; 2 µM): 1.1
- viability ([10]; 0.024 µM): 0.992
- viability ([10]; 0.12 µM): 0.922
- viability ([10]; 0.6 µM): 0.629
- viability ([10]; 3 µM): 0.508
- viability ([10]; 15 µM): 0.439
- viability ([11]; 0.024 µM): 0.812
- viability ([11]; 0.12 µM): 0.739
- viability ([11]; 0.6 µM): 0.681
- viability ([11]; 3 µM): 0.684
- viability ([11]; 15 µM): 0.678
- viability ([12]; 0.00016 µM): 0.995
- viability ([12]; 0.0008 µM): 0.633
- viability ([12]; 0.004 µM): 0.356
- viability ([12]; 0.02 µM): 0.329
- viability ([12]; 0.1 µM): 0.316
- viability ([13]; 0.024 µM): 0.958
- viability ([13]; 0.12 µM): 0.799
- viability ([13]; 0.6 µM): 0.522
- viability ([13]; 3 µM): 0.38
- viability ([13]; 15 µM): 0.38
- viability ([14]; 0.00064 µM): 1.11
- viability ([14]; 0.0032 µM): 0.689
- viability ([14]; 0.016 µM): 0.427
- viability ([14]; 0.08 µM): 0.682
- viability ([14]; 0.4 µM): 0.504
- viability ([15]; 0.024 µM): 0.961
- viability ([15]; 0.12 µM): 0.87
- viability ([15]; 0.6 µM): 0.751
- viability ([15]; 3 µM): 0.541
- viability ([15]; 15 µM): 0.43
